From article PMC7660650, “Chemical Starting Matter for HNF4α Ligand Discovery and Chemogenomics” (International Journal of Molecular Sciences, 2020)
Several values for one entry are separate records, joined by “and”; a condition that tells them apart may be missing. Identical values can stand only once.

Molecular target: T1, Gal4-HNF4α (human HNF4α LBD) (Homo sapiens, UniProt P41235)
T1 construct: uniprot entry: P41235-1, residues 142-377; expressed in transfected cells; host or cells: HEK293T
T1 sequence (P41235 142-377): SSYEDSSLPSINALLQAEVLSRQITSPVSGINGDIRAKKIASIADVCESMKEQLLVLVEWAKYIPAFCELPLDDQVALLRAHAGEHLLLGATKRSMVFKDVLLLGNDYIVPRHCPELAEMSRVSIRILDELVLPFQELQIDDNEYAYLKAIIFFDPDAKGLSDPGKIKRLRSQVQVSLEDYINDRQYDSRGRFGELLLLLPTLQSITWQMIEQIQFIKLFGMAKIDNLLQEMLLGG
Experiment: Hybrid Gal4-HNF4α reporter gene assay in transiently transfected HEK293T cells
Type: cell-based
Details: Table S1, primary screening, 50 µM

SMILES | HNF4a-screening_activity_(mean_of_n=2)
O=C1CNCN1 [Prestw-Frag-3718, O=C1CNCN1] | 1.053
CCN(CC)Cc1cc(N)ccc1O [Prestw-Frag-1462, CCN(CC)Cc1cc(N)ccc1O] | 1.135
CC(C)(Oc1ccccc1)C(=O)O [Prestw-Frag-1053, CC(C)(Oc1ccccc1)C(O)=O] | 0.9983 and 1.387
O=C(NCc1cccnc1)c1ccc(O)cc1 [Prestw-Frag-1747, Oc1ccc(cc1)C(=O)NCc1cccnc1] | 0.7115 and 0.9722
CCN(Cc1ccccc1)c1ccccc1 [Prestw-Frag-1121, CCN(Cc1ccccc1)c1ccccc1] | 1.173
c1cc2c(cc1CN1CCNCC1)OCO2 [Prestw-Frag-1397, C(N1CCNCC1)c1ccc2OCOc2c1] | 1.012
COC(=O)CN1CCc2sccc2C1 [Prestw-Frag-3371, COC(=O)CN1CCc2sccc2C1] | 1.101
O=c1[nH]nc2ccccn12 [Prestw-Frag-1673, O=c1[nH]nc2ccccn12] | 1.045
COc1ccc2c(c1)CCC(C(=O)O)C2 (centres unmarked) [Prestw-Frag-3739, COc1ccc2CC(CCc2c1)C(O)=O] | 0.6963
NC(=O)c1ccncc1 [Prestw-Frag-2587, NC(=O)c1ccncc1] | 0.9347
NCCc1ccc(F)cc1F [Prestw-Frag-3746, NCCc1ccc(F)cc1F] | 1.162
NC(=O)C(c1ccccc1)c1ccccc1 [Prestw-Frag-2366, NC(=O)C(c1ccccc1)c1ccccc1] | 0.8824
OCCN1CCN(c2ccccc2)CC1 [Prestw-Frag-1945, OCCN1CCN(CC1)c1ccccc1] | 1.061
CS(=O)(=O)Nc1ccccc1Oc1ccccc1 [Prestw-Frag-1861, CS(=O)(=O)Nc1ccccc1Oc1ccccc1] | 1.046 and 0.7818
NS(=O)(=O)c1ccc(Cl)cc1 [Prestw-Frag-1977, NS(=O)(=O)c1ccc(Cl)cc1] | 0.8584
COc1ccc(CCN(C)C)cc1OC [Prestw-Frag-1445, COc1ccc(CCN(C)C)cc1OC] | 1.047 and 0.984
c1ccc(-n2cccn2)cc1 [Prestw-Frag-3759, c1cnn(c1)-c1ccccc1] | 1.212
Cc1ccccc1Nc1ncccc1C(=O)O [Prestw-Frag-2806, Cc1ccccc1Nc1ncccc1C(O)=O] | 1.238
Cc1nc(-c2ccccc2)cs1 [Prestw-Frag-3743, Cc1nc(cs1)-c1ccccc1] | 1.125
c1ccc(C(CCN2CCCCC2)c2ccccc2)cc1 [Prestw-Frag-1193, C(CN1CCCCC1)C(c1ccccc1)c1ccccc1] | 0.8943 and 1.009
NC(=O)c1ccccc1O [Prestw-Frag-1439, NC(=O)c1ccccc1O] | 1.146
CCNC(=O)c1cccnc1 [Prestw-Frag-2794, CCNC(=O)c1cccnc1] | 1.068
OC1(c2ccc(Cl)cc2)CCNCC1 [Prestw-Frag-1365, OC1(CCNCC1)c1ccc(Cl)cc1] | 0.8125
CC(Oc1ccccc1)C(N)=O (centres unmarked) [Prestw-Frag-1200, CC(Oc1ccccc1)C(N)=O] | 0.9571 and 0.9481
NCCCOc1cccc(CN2CCCCC2)c1 [Prestw-Frag-2808, NCCCOc1cccc(CN2CCCCC2)c1] | 1.297
CC1(c2ccccc2)NC(=O)NC1=O (centres unmarked) [Prestw-Frag-2652, CC1(NC(=O)NC1=O)c1ccccc1] | 0.789
CC(O)(c1ccccc1)c1ccccn1 (centres unmarked) [Prestw-Frag-2237, CC(O)(c1ccccc1)c1ccccn1] | 0.9394

SMILES | HNF4a-screening_activity_(mean_of_n=2)
CC(=O)N(CCC(=O)O)c1ccccc1 [Prestw-Frag-2487, CC(=O)N(CCC(O)=O)c1ccccc1] | 0.9613
CCN(CC)CCNC(=O)c1ccccc1O [Prestw-Frag-1086, CCN(CC)CCNC(=O)c1ccccc1O] | 1.563 and 0.9485
CC1CCC(=O)O1 (centres unmarked) [Prestw-Frag-3757, CC1CCC(=O)O1] | 1.285
Cc1nnc(N)s1 [Prestw-Frag-1161, Cc1nnc(N)s1] | 1.123
COCCOC(=O)c1ccc(N)cc1 [Prestw-Frag-2453, COCCOC(=O)c1ccc(N)cc1] | 1.565
COC(=O)C(c1ccccc1)c1ccccc1 [Prestw-Frag-1013, COC(=O)C(c1ccccc1)c1ccccc1] | 1.409 and 1.217
Cc1c(O)c2ccccc2oc1=O [Prestw-Frag-1130, Cc1c(O)c2ccccc2oc1=O] | 0.9979
Cn1ccc(=O)[nH]1 [Prestw-Frag-3664, Cn1ccc(=O)[nH]1] | 1.182
FC(F)(F)c1nnc2n1CCNC2 [Prestw-Frag-3253, FC(F)(F)c1nnc2CNCCn12] | 1.371
Cc1cc(=O)n(-c2ccccc2)[nH]1 [Prestw-Frag-3742, Cc1cc(=O)n([nH]1)-c1ccccc1] | 0.8727
CCOc1ccccc1C(=N)N [Prestw-Frag-3314, CCOc1ccccc1C(N)=N] | 1.051
NCCCCN1CCN(c2ncccn2)CC1 [Prestw-Frag-2921, NCCCCN1CCN(CC1)c1ncccn1] | 1.125
Oc1ccc2[nH]ccc2c1 [Prestw-Frag-1645, Oc1ccc2[nH]ccc2c1] | 1.016
COc1cc2c(cc1OC)CC(=O)NCC2 [Prestw-Frag-3698, COc1cc2CCNC(=O)Cc2cc1OC] | 1.019
Oc1ccccc1OCC(F)(F)F [Prestw-Frag-3225, Oc1ccccc1OCC(F)(F)F] | 1.152
CC(=O)C1CCNCC1 [Prestw-Frag-3756, CC(=O)C1CCNCC1] | 0.9377
COc1ccc(N)nn1 [Prestw-Frag-1167, COc1ccc(N)nn1] | 1.35
CN1C2CCC1CC(O)C2 (centres unmarked) [Prestw-Frag-0608, CN1C2CCC1CC(O)C2] | 1.089 and 1.102
NS(=O)(=O)c1ccccc1C(F)(F)F [Prestw-Frag-1394, NS(=O)(=O)c1ccccc1C(F)(F)F] | 0.846
Fc1cccnc1N1CCCC1 [Prestw-Frag-3150, Fc1cccnc1N1CCCC1] | 1.041
Fc1ccc(C(c2ccc(F)cc2)N2CCNCC2)cc1 [Prestw-Frag-1323, Fc1ccc(cc1)C(N1CCNCC1)c1ccc(F)cc1] | 1.017 and 1.002
COc1cc2c(cc1OC)C(C)N(C)CC2 (centres unmarked) [Prestw-Frag-1273, COc1cc2CCN(C)C(C)c2cc1OC] | 1.056 and 0.9179
CCN(CC)C(=O)CC#N [Prestw-Frag-3731, CCN(CC)C(=O)CC#N] | 0.9542
COc1ccc(CCN)cc1OC [Prestw-Frag-3454, COc1ccc(CCN)cc1OC] | 1.113
NC(=O)NS(=O)(=O)c1ccccc1 [Prestw-Frag-1006, NC(=O)NS(=O)(=O)c1ccccc1] | 1.153 and 1.01
Nc1ccc[nH]c1=O [Prestw-Frag-1060, Nc1ccc[nH]c1=O] | 1.316 and 1.113
